Assay [1] has as its target T1, Purified human α-thrombin (Homo sapiens, UniProt P00734).
T1 construct: Purified human α-thrombin; purchased Enzyme Research Laboratories Inc
Kind of assay: In vitro inhibition of purified thrombin (hydrolysis of peptide p-nitroanilide substrate). The format is biochemical. As to the method: (§1) All assays are based on the ability of the test compound to inhibit the hydrolysis of a peptide p-nitroanilide substrate. In a typical experiment, substrate is prepared in DMSO, and diluted into an assay buffer consisting of 50 mM HEPES, 130 mM NaCl, pH 7.5. The final concentration for each of the substrates is listed below. All substrate concentrations are at least 10-fold lower than Km to insure inhibition is competitive. Test compounds are prepared as a 1 mg/ml solution in DMSO, and 3 additional 10-fold dilutions in DMSO are prepared. Enzyme solutions are prepared at the concentrations listed below in assay buffer.
(§2) In a typical IC50 determination, into each well of a 96 well plate is pipetted 280 uL of substrate solution, 10 μL of inhibitor solution, and the plate allowed to thermally equilibrate at 37° C. in a Molecular Devices Plate Reader for >10 minutes. Reactions were initiated by the addition of a 20 μL aliquot of enzyme, and the absorbance increase at 405 nm is recorded for 15 minutes. Data corresponding to less than 10% of the total substrate hydrolysis was used in the calculations. The ratio of the velocity (rate of the change in absorbance as a function of time) for a sample containing no inhibitor is divided by the velocity of a sample containing inhibitor, and is plotted as a function of inhibitor concentration. […]

The target of assay [2] is T2, Factor Xa (Homo sapiens, UniProt P00742).
T2 construct: purchased Enzyme Research Laboratories Inc
Kind of assay: In vitro inhibition of purified Factor Xa (hydrolysis of peptide p-nitroanilide substrate). As to conditions: Bz-Ile-Glu-Gly-Arg-pNa substrate; 10 nM Factor Xa; pH 7.5, 37° C. It counts as biochemical. As to the method: as §1
as §2, with “Data corresponding to less than 10% of the total substrate hydrolysis was used in the calculations.” left out
Factor Xa activity was assessed as the ability to hydrolyse the substrate Bz-Ile-Glu-Gly-Arg-pNa (obtained from Sigma Chemical Company, St Louis, Mo.). […]

T2 sequence (P00742 235-488 limits assumed): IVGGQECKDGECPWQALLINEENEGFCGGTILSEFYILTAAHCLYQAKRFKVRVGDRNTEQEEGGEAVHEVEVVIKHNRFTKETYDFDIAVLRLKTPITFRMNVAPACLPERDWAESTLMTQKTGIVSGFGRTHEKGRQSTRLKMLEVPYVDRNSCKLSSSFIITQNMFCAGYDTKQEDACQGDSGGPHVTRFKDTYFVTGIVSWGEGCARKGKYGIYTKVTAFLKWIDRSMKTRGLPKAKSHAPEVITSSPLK
T2 sequence (P00742 41-179 partner limits assumed): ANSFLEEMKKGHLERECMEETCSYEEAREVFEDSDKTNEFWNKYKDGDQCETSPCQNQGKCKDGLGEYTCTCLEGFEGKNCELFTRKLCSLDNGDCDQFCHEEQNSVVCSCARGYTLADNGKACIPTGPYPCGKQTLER

As usually defined, the IC50 is the concentration at which inhibition is half-maximal. Lower therefore signals inhibition by little substance. `O=C(O)c1cccc(N(S(=O)(=O)c2ccc3ccccc3c2)S(=O)(=O)c2ccc3ccccc3c2)c1` [Example 4, 3-[Bis[(2-naphthalenyl)sulfonyl]amino]benzoic Acid]: the IC50 in assay [1] (Bz-Phe-Val-Arg-pNa substrate, 36 nM thrombin, pH 7.5, 37° C.) stood at 0.8 µM; in assay [2], 59 µM. In addition, the “inhibition of thrombin, potency and selectivity (in words)” value in assay [1] (conclusion from Table 1, selectivity versus other serine proteases such as plasmin) was “selective and highly potent inhibitors of thrombin”.

The values above are taken from US5559150A, “N,N-disulfonylated aminobenzene carboxlic acids and the use thereof as thrombin inhibitors” (3-Dimensional Pharmaceuticals, Inc., priority 1995, dated 1996).
